Patent US20250353835A1, “N-TETRAZOLYL ARYL UREA-BASED DERIVATIVES, PREPARATION METHOD THEREFOR, AND USE THEREOF” (Hangzhou Yirui Pharmaceutical Technology Co., Ltd, priority 2022, published 2025)
Like-named read-outs stand apart in the source and are kept apart here.

Experiments:
[1] = tested on: rat model of acute lung injury; experiment: Rat model of LPS-induced acute lung injury; assay type: in vivo, Wistar rats; parameters: IL-6 (serum) / IL-6 (homogenate of lung tissue) / IL-6 (bronchoalveolar lavage fluid) / TNF-α (serum) / TNF-α (homogenate of lung tissue) / TNF-α (bronchoalveolar lavage fluid): unit not given here; details: ELISA; for expression levels of IL-6 and TNF-α (in words): rat model of acute lung injury; for IL-6 (bronchoalveolar lavage fluid) / IL-6 (homogenate of lung tissue) / IL-6 (serum) / TNF-α (bronchoalveolar lavage fluid) / TNF-α (homogenate of lung tissue) / TNF-α (serum): test drug 30 mg/kg i.p. 2 h before and 1 h after LPS, 12 h after modeling
Method: 1. Experimental aminals: SPF-grade male Wistar rats, weighed 180-220 g, 6-8 weeks old.
3. Establishment of animal model: The rats were adaptively fed for one week. After the animals were anesthetized, 3 mg/kg LPS (B8) was injected intratracheally to prepare the rat model of acute lung injury.
4. […] At 2 hours before modeling (before tracheal injection of LPS), the test drug (30 mg/kg, the vehicle was 0.3% DMSO in saline) was intraperitoneally injected. At 1 hour after modeling, the test drug was administered once again (at the same dose). At 12 hours after modeling, the animals were sacrificed, and the samples were collected for the tests of various indexes. […]
5.2 ELISA method: 5 rats per group. The serum, alveolar lavage fluid, and tissue homogenate of one lung of each of the rats were subjected to ELISA assay to determine the TNF-α and IL-6 levels.

[2] = tested on: rat model of diabetic retinopathy; experiment: Rat model of diabetic retinopathy (STZ); assay type: in vivo, Wistar rats; details: for retinal leukocyte stasis, Leukocyte count: Concanavalin A/FITC, 14 days after intravitreal injection, compounds 0.25%, dexamethasone 0.1%; for number of leukocyte stasis in the retina (fluorescent staining, FIG. 8; in words) / retinal vascular penetration in rats (fluorescent staining, FIG. 6; in words): intraocular injection, versus model group
Method: 3.1 Laboratory animals: SPF-grade male Wistar rats, weighed 180-220 g.
3.3 Animal modeling and grouping: After one week of adaptive feeding, 134 male Wistar rats (weighed 220-260 g) were administered 65 mg/kg of STZ by one-time intraperitoneal injection to prepare a rat model of type I diabetic. The rats were fasting but water was allowable overnight for 15 h. The formulated STZ solution was intraperitoneally injected according to body weight. After 1 h, the diet was resumed and blood glucose was measured at 72 h. The successfully modeled diabetic rats (120 rats) were selected for continued feeding, and randomly divided into the following 6 groups according to blood glucose (20 rats per group), plus a group of normal rats with no STZ injected as a negative control group.
3.4 Administration: The rats continued to be fed until blood glucose was measured once before administration. After blood glucose reached the standard, drugs were intravitreally injected, and indexs were subsequently tested after 14 days. Blood glucose was measured once before sampling.
3.5 Evans blue staining method (7 groups, 6 rats per group): Evans blue was intravenously injected. 2 hours later, normal saline was perfused into the left ventricle. The retina was taken to compare between the stained area and the unstained area to detect retinal vascular permeability.
3.6 Retinal leukocyte stasis detection method (7 groups, 6 rats per group): PBS was perfused into the left ventricle for 1 min to remove red blood cells and other substances. Concanavalin A (FITC (Sigma, C7642) was perfused (20 μg/ml in PBS, 5 mg/kg) to mark adherent leukocytes. 4% PFA was perfused for 4 min for fixation. 1% Albumin (Sigma, A6414) (in PBS) was perfused for 1 min, and then PBS was perfused for 2 min. The retina was taken for retinal wholemount. Thereafter, the stasis of leukocytes on the vascular endothelium was observed under a fluorescence microscope. […]

[3] = Ocular irritation after eye drops: ophthalmic observation and free protoporphyrin (FEP) in eye rinsing solution (ELISA); assay type: in vivo, SD rats; details: 2% eye drops (10 μl) twice a day for 7 days
Method: 2.1 Experimental aminals: SPF grade male SD rats, weighed 180-200 g, were used and adaptively fed for one week.
2.3 Experimental animal grouping: the animals were randomly divided into 3 groups (6 rats per group) of a negative control group (normal saline), a Compound 71 group and a Compound 8 group.
2.4 Administration method and sampling: 2% Compound (10 μl) dissolved in normal saline (after filtration) was dropped into the surface of each rat's eye with a pipette for 10 s. The eye drop was applied twice a day for a total of 7 days. Samples were taken at 1 and 16 hours after the second administration on Day 7 of administration to determine the ocular distribution concentration of the drug.
[…] The rinsing solution was frozen at −80° C. for subsequent detection of irritant inflammatory response on the surface of the bulbus oculi.
2.7.2 Result of measurement of secretion of porphyrin: it was further determined whether inflammation or bleeding in the eyes occurred after eye drops by ELISA essay of free protoporphyrin (FEP) in erythrocytes. As indicated by the results, the level of FEP in the sample of eye rinsing solution was at a low concentration level for the rats in both the test drug group and the negative control group. There was no significant difference (P>0.05).

[4] = Pharmacokinetics in vivo in rats; parameters: species or system SD rats; details: for clearance / half-life / Vd / AUC / Cmax / bioavailability: SD, rat, plasma; for Vd: read-out: Apparent volume of distribution (Vss); for AUC: read-out: Area under the curve of plasma concentration-time (AUC); for Cmax: read-out: Peak concentration (Cmax)
Method: 1. […] At different time points after administration, blood samples were collected into EDTA blood sample collection tubes. Plasma was separated by centrifugation and stored at −20° C. for the analysis afterwards.
2. Handling of blood samples and LC-MS/MS analysis: the standard curve and formulation and processing of quality control sample: The compound stock solution was diluted with 50% methanol in water to form a standard curve working solution containing each compound at a concentration of 40-20000 ng/mL and a quality control working solution of 120, 1200, and 16000 ng/mL. 47.5 μL of blank rat plasma were respectively taken, and added into 2.50 μL of standard curve working solution or the quality control working solution, to formulate the standard curve samples containing the compound at a concentration of 2.00-1000.00 ng/mL and the quality control samples having a concentration of […] and 800.00 ng/mL. 400 μL of acetonitrile (containing 5 ng/mL of verapamil as an internal standard) was added respectively. The samples were vortexed for 3 min, centrifuged at 20000 rcf, 4° C. for 15 min. The supernatant was taken for LC-MS/MS analysis.
3. Treatment of the compound blood samples: 5 μL of plasma sample was taken, to which 95 μL of blank rat plasma was added, and 800 μL of acetonitrile (containing 5 ng/mL of verapamil as an internal standard) was added. The samples were vortexed for 3 min, centrifuged at 15000 rcf, 4° C. for 10 min. The supernatant was taken for LC-MS/MS analysis (chromatographic column: ACQUITY UPLC® BEH C18 2.1×50 mm 1.7 μm; mobile phase A: 0.1% formic acid in water; mobile phase B: acetonitrile; flow rate: […]).
4. Analysis of the results: pharmacokinetic parameters were fit and calculated by WinNonlin software using statistical […] method, mainly including kinetic parameters Tmax, t1/2, Cmax, AUC0-t, AUC0∞, Cl, Vd, F, etc. The pharmacokinetic data were calculated and processed using Microsoft Excel, such as mean and standard deviation.

[5] = 3 mg/kg oral administration in rats (Table 2A)
[6] = 3 mg/kg intravenous injection in rats

Peak time [4, 5] | clearance [4, 6] | half-life [4, 6] | Vd [4, 6] | AUC [4, 6] | Cmax [4, 6] | Compound | expression levels of IL-6 and TNF-α (in words) [1] | IL-6 (bronchoalveolar lavage fluid) [1] | IL-6 (homogenate of lung tissue) [1] | IL-6 (serum) [1] | TNF-α (bronchoalveolar lavage fluid) [1] | TNF-α (homogenate of lung tissue) [1] | TNF-α (serum) [1] | retinal leukocyte stasis, Leukocyte count [2] | number of leukocyte stasis in the retina (fluorescent staining, FIG. 8; in words) [2] | retinal vascular penetration in rats (fluorescent staining, FIG. 6; in words) [2] | FEP expression level in eye rinsing solution, Left eye ([3]; 1 h) | FEP expression level in eye rinsing solution, Right eye ([3]; 1 h) | FEP expression level in eye rinsing solution, Left eye ([3]; 16 h) | FEP expression level in eye rinsing solution, Right eye ([3]; 16 h) | further results
0.78 h | 9.87 mL/min/kg | 0.56 h | 0.328 L/kg | 5090 ng·h/mL | 16400 ng/mL | CCOc1ccc(-c2c(F)cc(NC(=O)N3CCC(C(C)(C)C)CC3)cc2-c2nn[nH]n2)cn1 [Compound 8, 4-(tert-butyl)-N-(4-(6-ethoxypyrid-3-yl)-3-fluoro-5-(2H-tetrazol-5-yl)phenyl)piperidine-1-carboxamide] | effectively reduce | 171.55 ± 81.93 | 250.10 ± 70.26 | 470.76 ± 151.60 | 26.72 ± 10.35 | 35.74 ± 11.82 | 94.89 ± 28.07 | 5.32 ± 1.38 | significantly reduced | significantly reduced | 1.53 ± 0.03 ng/mL | 1.45 ± 0.02 ng/mL | 1.57 ± 0.08 ng/mL | 1.57 ± 0.06 ng/mL | bioavailability [4, 5]: 6.1%; half-life [4, 5]: 3.37 h; AUC [4, 5]: 3130 ng·h/mL; Cmax [4, 5]: 1390 ng/mL
2.72 h | 2.42 mL/min/kg | 0.93 h | 0.156 L/kg | 20700 ng·h/mL | 37500 ng/mL | CCOc1ccc(-c2ccc(NC(=O)N[C@H]3CC[C@H](C)CC3)cc2-c2nn[nH]n2)cn1 [Compound 71, 1-(4-(6-ethoxypyrid-3-yl)-3-(2H-tetrazol-5-yl)phenyl)-3-((trans)-4-methylcyclohexyl)urea] | effectively reduce | 184.29 ± 75.57 | 236.26 ± 84.91 | 473.14 ± 134.88 | 25.73 ± 11.35 | 37.03 ± 10.88 | 101.63 ± 37.40 | 5.22 ± 1.13 | significantly reduced | significantly reduced | 1.50 ± 0.02 ng/mL | 1.54 ± 0.08 ng/mL | 1.61 ± 0.06 ng/mL | 1.55 ± 0.09 ng/mL | bioavailability [4, 5]: 3.6%; half-life [4, 5]: 3.63 h; AUC [4, 5]: 7480 ng·h/mL; Cmax [4, 5]: 914 ng/mL
